{"source": "patent US20250206708A1", "about": "“AN OXAZIRIDINE PLATFORM FOR TARGETING FUNCTIONAL ALLOSTERIC METHIONINE SITES” (Novartis AG, priority 2022, published 2025)", "key": {"CDK4 [1]": {"biological_target": "T1, CDK4 (Homo sapiens, UniProt P11802)", "T1 sequence (P11802 whole entry, the tested form may be a part)": "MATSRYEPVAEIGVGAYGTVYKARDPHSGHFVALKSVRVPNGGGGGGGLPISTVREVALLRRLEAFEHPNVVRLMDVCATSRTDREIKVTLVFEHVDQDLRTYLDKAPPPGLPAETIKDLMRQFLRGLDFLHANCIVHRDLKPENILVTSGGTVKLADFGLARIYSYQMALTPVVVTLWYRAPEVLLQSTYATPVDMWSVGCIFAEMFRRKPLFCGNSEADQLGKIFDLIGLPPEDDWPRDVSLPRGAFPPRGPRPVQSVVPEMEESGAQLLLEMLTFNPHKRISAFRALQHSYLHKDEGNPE", "T1 sequence (P24385 whole entry partner, the tested form may be a part)": "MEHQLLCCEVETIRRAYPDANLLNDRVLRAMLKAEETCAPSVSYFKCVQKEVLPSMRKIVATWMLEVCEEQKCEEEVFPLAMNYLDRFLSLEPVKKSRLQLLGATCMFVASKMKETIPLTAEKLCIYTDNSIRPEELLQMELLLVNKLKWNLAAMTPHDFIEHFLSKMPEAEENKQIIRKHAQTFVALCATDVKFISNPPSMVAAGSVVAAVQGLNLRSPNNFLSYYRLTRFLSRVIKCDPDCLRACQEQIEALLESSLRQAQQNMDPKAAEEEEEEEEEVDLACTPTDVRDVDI", "assay": "ADP-Glo luciferase-based in vitro activity assay on purified CDK4", "format": "biochemical", "conditions": "Rb (aa 773-928) substrate, read-out: IC50, inhibition of activity of purified CDK4 protein", "method": "Effects of Compound 148 on in vitro activity of CDK4 were determined via commercially available ADP-Glo assay (Promega; cat no.V6930). Isolated CDK4 was provided by Novartis. Retinoblastoma protein (aa 773-928) was obtained from commercial sources (Millipore Sigma; 12-439). The assay kit protocol was followed as directed, with the addition of a quench step (addition of 1 μL of 25 μM N-Acetyl methionine) after incubation of protein with oxaziridine ligand."}, "CDK4 [2]": {"biological_target": "T1, CDK4", "assay": "Shotgun proteomics (MS/MS) site of modification on CDK4", "format": "binding", "conditions": "50 μM oxaziridine, 30 min, 23° C.", "method": "To more accurately assess residue reactivity of oxaziridines on CDK4, 10 μg of CDK4 was diluted with 90 μg whole cell extract derived from mouse liver to a total volume of 100 μL in PBS. Protein mixture was treated with 50 μM oxaziridine (DMSO) and allowed to incubate at 23° C. for 30 min. Labeled protein was precipitated via addition of 900 μL MeOH at −80° C. overnight. The next day, sample was spun at max speed at 4° C. for 10 min. The pellet was gently washed 3 times with a solution of ice cold MeOH. The supernatant was then removed, and the pellet resuspended in 30 μL freshly prepared 8 M urea/PBS. A 5× stock of ProteaseMAX (Promega; cat no. V2071) was prepared by dissolved the pellet in 100 μL ammonium bicarbonate. To the protein mixture was added 30 μL 1×ProteaseMAX, 40 μL ammonium bicarbonate, and 10 μL of 110 mM freshly prepared TCEP (Pierce; cat no. 20490). […]\nPeptides from all experiments were analyzed on a Q Exactive Plus mass spectrometer (Thermo Fisher Scientific); pure proteins were analyzed on a C18 only column, while complex proteomes were analyzed via a five step Multidimensional Protein Identification Technology (MudPIT).^7 In both cases, Inlines (IDEX; cat no.M-520) were fitted with ˜20 cm of 250 μm tubing and prepacked with 4 cm of Aqua C18 reverse-phase resin (Phenomenex; cat no. 04A-4299). […]\nData were analyzed with Byologic (Protein Metrics Inc.). […]"}, "CDK6": {"biological_target": "CDK6 (Homo sapiens, UniProt Q00534)", "sequence (Q00534 whole entry, canonical isoform)": "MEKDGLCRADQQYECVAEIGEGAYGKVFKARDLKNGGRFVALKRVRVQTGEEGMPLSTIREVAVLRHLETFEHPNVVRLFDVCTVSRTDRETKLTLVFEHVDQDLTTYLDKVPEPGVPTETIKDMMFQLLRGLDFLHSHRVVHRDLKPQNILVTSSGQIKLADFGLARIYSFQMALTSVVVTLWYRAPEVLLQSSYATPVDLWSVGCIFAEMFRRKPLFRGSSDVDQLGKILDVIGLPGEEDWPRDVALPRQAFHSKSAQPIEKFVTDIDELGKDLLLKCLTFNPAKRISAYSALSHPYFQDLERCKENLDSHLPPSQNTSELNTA", "assay": "Gel-based ABPP, isoform specificity on CDK6", "format": "binding", "conditions": "dose-dependent treatment", "method": "Activity-based protein profiling (ABPP) was performed as follows. CDK4 was diluted in PBS to 50 nM, then 50 μL was added to each well of a 96-well PCR plate. Ligands were dissolved fresh in DMSO to 5 μM, and 1 μL was added so each well contained a unique ligand at the indicated concentration. Wells were mixed and allowed to incubate 1 h at 23° C. Ligands were then chased with fresh Compound 301 with 1 μL of 5 μM added to each well (100 nM final), wells mixed and allowed to incubate 1 h at 23° C. Excess oxaziridine was quenched with N-acetyl methionine via addition of 1 μL of 10 mM DMSO stock (200 μM final), wells mixed and allowed to incubate 1 h at 23° C. A stock was prepared 1:5 of 12.5 μM DBCO-Cy3 in DMSO: 1.2% SDS/PBS. To each well was added 6 μL of this stock, the wells mixed and allowed to incubate overnight protected from light at 23° C. The next morning 30 μL of 4×Laemmli's buffer containing 10% BME was added to each well. The plate was sealed and brought to 95° C. for 6 min. Samples were loaded and separated on precast 4-20% TGX gels and scanned by ChemiDoc MP for measuring in-gel fluorescence. After that, the total protein level on the gel was assayed by silver staining according to the manufacturer's protocol and scanned by ChemiDoc MP.\nThe isoform specificity was tested with two closely-related congeners, CDK1 and CDK6."}}}
{"smiles": "O=C(N1CC2COCC2C1)N1OC1c1ccccc1", "note": "(stereo not drawn) [Compound 148]", "values": [{"measurement": "IC50", "setting": "CDK4 [1]", "value": "~200", "unit": "nM"}, {"measurement": "site(s) of modification on CDK4", "setting": "CDK4 [2]", "value": "M169, with minor labeling at M264"}, {"measurement": "labeling against CDK6 by gel analysis", "setting": "CDK6", "value": "no dose-dependent labeling"}]}
